The target of this assay is α-glucosidase (Saccharomyces cerevisiae, UniProt P53341). The assay is described as follows: α-Glucosidase inhibitory assay. The class given is biochemical. As to conditions: in vitro. As to the method:
Alpha-glucosidase is an enzyme that hydrolyzes the carbohydrates to monosaccharides in the final step of carbohydrate digestion. […] In order to search for bioactive substances to treat type 2 diabetes using Diaphragma juglandis Fructus, all isolated constituents (1–37) were assessed for antidiabetic activity using an in vitro α-glycosidase inhibition assay.
The α-glucosidase was obtained from Sigma-Aldrich (Shanghai) Trading Co., Ltd (Shanghai, China). p-nitrophenyl-α-D-glucopyranoside was obtained from Macklin Co., Ltd. (Lot# C12592180, Shanghai, China).
The α-glucosidase inhibition assay was performed according to a previous report with a slight difference: the concentration of α-glucosidase was diluted to 0.15 unit/mL. The volume of α-glucosidase added to the 96-well plate was 10 μL.

Here are results for 4 compounds from publication PMC9143591, “The Chemical Constituents of Diaphragma Juglandis Fructus and Their Inhibitory Effect on α-Glucosidase Activity” (Molecules, 2022).

Sequence of α-glucosidase (P53341 whole entry): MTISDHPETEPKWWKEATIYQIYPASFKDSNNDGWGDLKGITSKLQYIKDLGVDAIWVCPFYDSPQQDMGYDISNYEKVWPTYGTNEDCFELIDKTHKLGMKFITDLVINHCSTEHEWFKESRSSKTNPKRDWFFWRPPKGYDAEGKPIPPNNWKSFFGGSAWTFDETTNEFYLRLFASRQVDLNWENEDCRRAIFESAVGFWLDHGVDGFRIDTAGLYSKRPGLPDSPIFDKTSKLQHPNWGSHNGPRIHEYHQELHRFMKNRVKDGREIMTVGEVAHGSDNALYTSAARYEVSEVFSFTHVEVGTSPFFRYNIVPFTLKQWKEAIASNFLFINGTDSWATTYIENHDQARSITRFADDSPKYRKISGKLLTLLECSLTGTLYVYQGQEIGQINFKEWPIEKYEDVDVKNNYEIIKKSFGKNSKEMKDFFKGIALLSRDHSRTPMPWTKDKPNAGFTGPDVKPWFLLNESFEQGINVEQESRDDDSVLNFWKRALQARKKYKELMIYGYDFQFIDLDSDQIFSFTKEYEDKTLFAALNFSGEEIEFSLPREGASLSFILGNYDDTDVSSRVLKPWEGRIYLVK

For `O=C1c2c(O)cc(O)cc2OC(c2ccc(O)c(O)c2)C1O` (stereo not shown) [Compound 13, taxifolin], the “α-glucosidase inhibition activity (in words)” value is “quite potent”. Consider `Oc1cc(O)c2c(c1)O[C@@H](c1ccc(O)c(O)c1)[C@H](O)C2` [Compound 16, (+)-catechin], for which the “α-glucosidase inhibition activity (in words)” value is “quite potent”. In the case of `O=c1cc(-c2ccc(O)c(O)c2)oc2cc(O)cc(O)c12` [Compound 28, luteolin] it was “quite potent”. In the case of `O=c1c(O)c(-c2ccc(O)c(O)c2)oc2cc(O)cc(O)c12` [Compound 21, quercetin] it was “quite potent”.
